Where two headings read alike, the source gives them in different places.
Tests used:
[1] = DPPH radical scavenging activity; format: biochemical; details: DPPH 100 μM in methanol, 37 °C, absorbance 490 nm
Description: (§1) We have carried out both enzymatic and non-enzymatic assays to evaluate the antioxidant properties of all the synthesized scorpionate complexes of Cu(II), Zn(II) and Cd(II) (1–9). All complexes were used at an initial concentration of 2.5 mM diluted in methanol.
The antioxidant properties of the compounds or control substances have been measured by DPPH, which is able to react with various natural or synthetic antioxidants. A dose response curve was plotted to determine the IC50 values, and the following formula was used to calculate the percentage of radical scavenging:Radical scavenging % = [(A0 − Ac)/A0] × 100 where A0 is the absorbance of the control sample, containing the reagents except the test substance, and Ac is the absorbance of the solution of the various complexes and of the control measured after 30 min of incubation at 37 °C. Any determination is performed in triplicate.
In order to determine the DPPH radical scavenging activity of different scorpionate complexes, the compounds or standards in methanol were diluted in series in the 96 well plate with a flat bottom. The solvent used is usually the same used to dissolve the samples. In various wells containing the compounds and standards, 200 μL of DPPH in methanol solution (100 μM) were added to reach a final volume of 250 μL in all wells. After incubation at 37 °C for 20 min, the absorbance of samples was determined at 490 nm (Multiskan JX, Thermo Labsystems Oy, Vantaa, Finland). Trolox was used as a control and was loaded into the plate with the same method and dilution of the samples.

[2] = ABTS radical scavenging activity; format: biochemical; details: ABTS+· in methanol, 10 min dark, room temperature, absorbance 630 nm
Description: as §1
Total antioxidant activity was assessed as a measure of radical scavenging activity of the complexes examined against the cationic radical ABTS^+. The method is valid for both hydrophilic and hydrophobic antioxidants. The working solution is produced by the oxidation of an initial solution of ABTS, which is oxidized to ABTS^+· through the reaction with K2S2O8 (2.45 mM) and left in the dark for 12 h. After incubation, the ABTS^+· solution is diluted with methanol to obtain an absorbance of 0.706 ± 0.001 units at 734 nm, which is used as a solution for the analysis of scavenger activity.
Radical scavenging ability is measured with a modified method described initially by Re et al. for the application of a microplate 96 wells. Compounds or standards in methanol were diluted in series in the 96 well plate, as previously described. Trolox was used as a control and was loaded into the plate with the same method and dilution of the samples. The reaction is started with the addition of 200 μL of the ABTS^+· solution (final volume in the wells, 250 μL). The reaction mixture is allowed to stand in the dark for 10 min at room temperature, and the absorbance at 630 nm is measured (Multiskan JX, Thermo Labsystems Oy, Vantaa, Finland). The radical scavenging activity is estimated through the absorbance decrease at 630 nm and can be expressed as the equivalent Trolox.

[3] = Superoxide radicals scavenging activity (PMS-NADH/NBT system); format: biochemical; details: for IC50: PMS-NADH/NBT, Tris-HCl pH 8.0, absorbance 560 nm, read-out: Oxygen Species Radicals IC50, O2^−
Description: as §1
The scavenging activity of superoxide radicals was determined by the method of Liu and Ng, slightly modified by Kang and Lee. Superoxide radicals are generated in the phenazine methosulfate-nicotinamide adenine dinucleotide (PMS-NAD) system, responsible for the oxidation of NADH (reduced form of NAD) that was analyzed by reducing the nitro blue tetrazolium chloride NBT in a microplate assay.
In a 96 well plate, samples or control were subjected to a serial dilution with 20 mM Tris-HCl (pH 8.0). Superoxide radicals are generated by adding in 200 μL of 20 mM Tris-HCl (pH 8.0), containing 78 mM NADH, NBT 50 mM to each well and 10 μL are added to the various samples of PMS 10 mM. The reaction between superoxide radicals and NBT develops a blue color, whose intensity decreases proportionally in the presence of the antioxidant compound. The change in absorbance in the various wells is measured at 560 nm with a microplate reader (Molecular Devices, Sunnyvale, CA, USA). L-ascorbate was used as a positive control. The interaction relationship with the superoxide radical (%) was calculated using the following formula:superoxide radical (%) = ((A − A1)/A) × 100 where A is the absorbance of the positive control, and A1 is the absorbance of the test samples.

[4] = Hydroxyl radicals scavenging activity (L-ascorbic acid-CuSO4 / cytochrome c); format: biochemical; details: L-ascorbic acid-CuSO4, cytochrome c oxidation, pH 7.4, 550 nm; read-out: Oxygen Species Radicals IC50, OH
Description: as §1
The scavenging activity of superoxide radicals was determined by the method of Liu and Ng, slightly modified by Kang and Lee. Hydroxyl radicals, generated in the L-ascorbic acid-CuSO4 system, with the reduction of Cu^2+, were analyzed by the oxidation of cytochrome c in 96 microplate wells. The hydroxyl radicals were generated in 200 μL of 10 mM buffer sodium phosphate (pH 7.4), containing […], 12 μM reduced cytochrome c and the samples to be analyzed in different concentrations. The reduction of cytochrome c is produced with the addition of an excess of dithiothreitol to a solution of cytochrome c and followed by Sephadex G-15 chromatography (bed volume, 10 mL) to remove the excess of dithiothreitol.
The compounds or standards in methanol were diluted in series in a 96-well flat-bottomed plate. Stock solution was prepared in phosphate buffer (pH 7.4) containing 100 μM L-ascorbic acid and 100 μM CuSO4. Then, 200 μL of this solution was added to each well and, finally, 10 μL of 120 μM reduced cytochrome c, was added to the plate and was left to incubate for 20 min at room temperature. The change in absorbance, caused by the oxidation of cytochrome c, was measured at 550 nm with a microplate reader (Molecular Devices, Sunnyvale, CA, USA). A thiourea solution (500 μM) was used as a positive control. The scavenging activity of hydroxyl radicals of 500 […] solution of thiourea was taken as 100%. The scavenging activity of hydroxyl radicals has been calculated using the following formula:hydroxyl scavenging radicals (%) = (A − A0)/(AT − A0) × 100 where A is the absorbance of the samples, and AT and A0 is the absorbance of the thiourea and the control, respectively.

[5] = Hydrogen peroxide radicals scavenging activity; format: biochemical; details: hydrogen peroxide in PBS, 10 min, 230 nm; read-out: Oxygen Species Radicals IC50, OOH
Description: as §1
In order to determine the scavenging activity of H2O2 of different complexes or standards in methanol, the compounds were diluted in series in a 96-well flat-bottom plate with the same procedure used in previous assays. Then, 200 μL of peroxide solution was added to the various wells hydrogen in PBS (final volume, 250 μL). After 10 min of incubation, the absorbance was measured at 230 nm with a microplate reader.

[6] = Nitric oxide scavenging activity (sodium nitroprusside / Griess reagent); format: biochemical; details: sodium nitroprusside in PBS, light, 150 min, 577 nm, read-out: Oxygen Species Radicals IC50, NO
Description: as §1
In order to determine the scavenging activity of the metal complexes against NO radicals, samples were added to a 96-well plate dish with a flat bottom, and were serially diluted by the same procedure used in the previous assays. In all wells, 100 μL of PBS and 50 μL of sodium nitroprusside dissolved in saline phosphate buffer (PBS), were added. The plate with the samples was incubated in the presence of light at room temperature for 150 min. Finally, an equal volume of 50 μL of Griess reagent was added to each well in order to measure the nitrite content. The plate was incubated at room temperature for 10 min until chromophore formation, and the absorbance was measured at 577 nm in a microplate reader (Molecular Devices, Sunnyvale, CA, USA).

[7] = Overall evaluation of scavenging (antioxidant) activity, all radical assays; format: biochemical; details: conclusions, all radical assays together
Description: as §1

[8] = Solubility of the isolated complexes; format: physicochemical; details: for Solubility in chlorinated solvents, alcohols, acetonitrile, dimethylsulfoxide and dimethylformamide: organic solvents as listed
[9] = Air and moisture stability of the isolated powders; format: physicochemical; details: pure powders
[10] = read-out: SOD activity IC50, cited from earlier work

CC(C)(C)c1cc[nH]n1.CC(C)(C)c1cc[nH]n1.CC(C)(C)c1cc[nH]n1.[Cl][Cu][Cl] [Complex 3, [Cu(Hpz^t^Bu)3Cl2]]
IC50 [1]: 0.0766 ± 0.0025 mM
IC50 [2]: 0.0972 ± 0.0038 mM
IC50 [3]: 0.233 ± 0.004 mM
SOD-mimic activity, times less than native bovine Cu-Zn-SOD ([3]; ratio of superoxide IC50 to native bovine Cu-Zn-SOD (IC50 = 0.48 μM)): 500 times
IC50 [4]: > 5 mM
IC50 [5]: > 5 mM
IC50 [6]: > 5 mM
Antioxidant (scavenging) activity, overall verdict [7]: moderate antioxidant activity
Solubility in chlorinated solvents, alcohols, acetonitrile, dimethylsulfoxide and dimethylformamide [8]: soluble
Solubility in water [8]: insoluble

Cc1ccc2c(cnn2[BH-](n2ncc3cc(C)ccc32)n2ncc3cc(C)ccc32)c1.Cc1ccc2c(cnn2[BH-](n2ncc3cc(C)ccc32)n2ncc3cc(C)ccc32)c1.ClCCl.[Zn+2] [Complex 4, [Zn(Tp^4Bo,5Me)2]⋅CH2Cl2]
Solubility in most organic solvents [8]: good solubility
Solubility in chlorinated solvents, alcohols, acetonitrile, dimethylsulfoxide and dimethylformamide [8]: soluble
Solubility in water [8]: insoluble
Stability to air and moisture [9]: air and moisture stable

ClCCl.ClCCl.ClCCl.ClCCl.[Zn+2].c1ccc2c(c1)CCc1cn([BH-](n3cc4c(n3)-c3ccccc3CC4)n3cc4c(n3)-c3ccccc3CC4)nc1-2.c1ccc2c(c1)CCc1cn([BH-](n3cc4c(n3)-c3ccccc3CC4)n3cc4c(n3)-c3ccccc3CC4)nc1-2 [Complex 5, [Zn(Tp^a)2]⋅4CH2Cl2]
Antioxidant (scavenging) activity, overall verdict [7]: moderate antioxidant activity
Solubility in most organic solvents [8]: good solubility
Solubility in chlorinated solvents, alcohols, acetonitrile, dimethylsulfoxide and dimethylformamide [8]: soluble
Solubility in water [8]: insoluble
Stability to air and moisture [9]: air and moisture stable

Cc1ccc2c(cnn2[BH-](n2ncc3cc(C)ccc32)n2ncc3cc(C)ccc32)c1.Cc1ccc2c(cnn2[BH-](n2ncc3cc(C)ccc32)n2ncc3cc(C)ccc32)c1.[Cd+2] [Complex 7, [Cd(Tp^4Bo,5Me)2]]
IC50 [1]: > 5 mM
IC50 [2]: > 5 mM
IC50 [3]: > 5 mM
IC50 [4]: > 5 mM
IC50 [5]: > 5 mM
IC50 [6]: > 5 mM
Solubility in most organic solvents [8]: good solubility
Solubility in chlorinated solvents, alcohols, acetonitrile, dimethylsulfoxide and dimethylformamide [8]: soluble
Solubility in water [8]: insoluble
Stability to air and moisture [9]: air and moisture stable

CC(C)(C)c1cc[nH]n1.CC(C)(C)c1ccn([BH2-]n2ccc(C(C)(C)C)n2)n1.[Cl][Cd+] [Complex 9, [Cd(Bp^t^Bu)(Hpz^t^Bu)Cl]]
IC50 [1]: > 5 mM
IC50 [2]: 0.151 ± 0.0042 mM
IC50 [3]: > 5 mM
IC50 [4]: > 5 mM
IC50 [5]: > 5 mM
IC50 [6]: > 5 mM
Antioxidant (scavenging) activity, overall verdict [7]: moderate antioxidant activity
Solubility in chlorinated solvents, alcohols, acetonitrile, dimethylsulfoxide and dimethylformamide [8]: soluble
Solubility in water [8]: insoluble

Cc1c(C)c2c(c(C)c1O)CCC(C)(C(=O)O)O2 (stereo not shown) [Trolox, reference compound]
IC50 [1]: 0.0199 ± 0.0015 mM
IC50 [2]: 0.00401 ± 0.0007 mM
IC50 [3]: > 5 mM
IC50 [4]: > 5 mM
IC50 [5]: > 5 mM
IC50 [6]: > 5 mM

O=C(O)c1ccc(P(c2ccccc2)c2ccccc2)cc1.O=C(O)c1ccc(P(c2ccccc2)c2ccccc2)cc1.[Cu+].c1cnn([B-](n2cccn2)(n2cccn2)n2cccn2)c1 [[Cu(PPh2(4-C6H4COOH))2(pzTp)]]
IC50 ([10]; reported scorpionate complex ref 21): 0.0046 mM

Brc1cnn([BH-](n2cc(Br)cn2)n2cc(Br)cn2)c1.O=C(O)c1ccc(P(c2ccccc2)c2ccccc2)cc1.[Cu+] [[Cu(PPh2(4-C6H4COOH))(Tp^4Br)]]
IC50 ([10]; reported scorpionate complex ref 20): 0.0062 mM

[Zn(Tp^t^Bu)Cl] [Complex 6]
IC50 [1]: > 5 mM
IC50 [2]: 0.0579 ± 0.0034 mM
IC50 [3]: > 5 mM
IC50 [4]: > 5 mM
IC50 [5]: > 5 mM
IC50 [6]: > 5 mM
Solubility in chlorinated solvents, alcohols, acetonitrile, dimethylsulfoxide and dimethylformamide [8]: soluble
Solubility in water [8]: insoluble

native bovine Cu-Zn-SOD: native bovine copper-zinc superoxide dismutase enzyme
IC50 ([10]; native enzyme, literature value ref 47): 0.00048 mM
